From article PMC4801481 (Biochemistry, 2015)
Where two headings read alike, the source gives them in different places.

Key:
[1] = system: stem IIB (HIV-1 RRE RNA hairpin); test: NMR of Rev complexes with stem IIB; assay type: binding; details: 288 K
[2] = system: stem IA (HIV-1 RRE RNA hairpin); test: NMR of Rev complexes with stem IA; assay type: binding; details: 288 K
[3] = Solubility of Rev protein; assay type: physicochemical; details: in the absence of RNA
[4] = in the absence of high salt; cited from earlier work

Substance | RNA imino resonances on RevDO binding ([1]; 1D 1H NMR, pH 6.5, 0.1 M KCl) | number of backbone amide resonances ([1]; 1H–15N HSQC, 15N-RevDO bound to IIB, 0.4 mM, pH 6.5) [backbone amide resonances] | arginine Hε protons ([1]; 1H–15N HSQC, RevDO bound to IIB) | imino proton of Trp45 ([1]; 1H–15N HSQC, RevDO complexes, IIB versus IA) | 1H–15N HSQC peak appearance ([1]; 15N-RevDO bound to IIB, 0.4 mM, pH 6.5) | RNA imino resonances on RevDO binding ([2]; 1D 1H NMR, pH 6.5, 0.1 M KCl) | number of backbone amide resonances ([2]; 1H–15N HSQC, 15N-RevDO bound to IA, 0.4 mM, pH 6.5) [backbone amide resonances] | arginine Hε protons ([2]; 1H–15N HSQC, RevDO bound to IA) | 1H–15N HSQC peak appearance ([2]; 15N-RevDO bound to IA, 0.4 mM, pH 6.5) | solubility [3] | solubility [4]
RevDO: Truncated HIV-1 Rev (residues 9–64) with mutated dimerization (L12 → S, L60 → R) and higher-order oligomerization (L18 → Q, I55 → N) surfaces | almost identical to those obtained with the Rev–ARM peptide | ~50 | well resolved with IIB | observed only with IIB | reasonably well-resolved peaks | almost identical to those obtained with the Rev–ARM peptide | ~40 | mostly absent with IA | fewer, broader peaks | – | –
Rev protein: viral regulatory protein Rev of HIV-1 | – | – | – | – | – | – | – | – | – | poor solubility of Rev in the absence of RNA | poorly soluble in the absence of high salt
